The text below walks through data of US7902373B2 (Pfizer Inc, priority 2006, dated 2011).

The structures appear in SMILES notation.

The IC50 is the concentration that gives 50% inhibition.

Sequence of human recombinant H-PGDS (O60760 whole entry): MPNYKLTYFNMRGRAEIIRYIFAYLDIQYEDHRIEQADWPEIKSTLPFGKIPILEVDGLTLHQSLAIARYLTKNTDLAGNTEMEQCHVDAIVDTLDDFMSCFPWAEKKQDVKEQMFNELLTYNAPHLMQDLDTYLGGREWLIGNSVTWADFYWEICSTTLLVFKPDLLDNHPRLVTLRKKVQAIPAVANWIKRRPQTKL

This experiment has as its target human recombinant H-PGDS (Homo sapiens, UniProt O60760). The experiment in a line: Fluorescence intensity h-PGDS TBA enzyme assay. The following applies: Examples up to 622 (and 3a, 3b). It counts as biochemical.
With `Cc1cc(C)c(C#N)c(N2CCC(NC(=O)c3ccc(-c4cccc(F)c4)nc3)CC2)n1` [Example 69, N-[1-(3-Cyano-46-dimethylpyridin-2-yl)piperidin-4-yl]-6-(3-fluorophenyl)nicotinamide], the IC50 stood at 1210 pM.

`N#Cc1ccc(C(F)(F)F)nc1N1CCC(NC(=O)c2ccc(-c3cccc(F)c3)nc2)CC1` [Example 70, N-{1-[3-Cyano-6-(trifluoromethyl)pyridin-2-yl]piperidin-4-yl}-6-(3-fluorophenyl)nicotinamide]: the IC50 stood at 3260 pM.

Consider `Cc1csc2c(N3CCC(NC(=O)c4ccc(-c5cccc(F)c5)nc4)CC3)ncnc12` [Example 71, 6-(3-Fluorophenyl)-N-[1-(7-methylthieno[3,2-d]pyrimidin-4-yl)piperidin-4-yl]nicotinamide], for which the IC50 is 2180 pM.

For `O=C(NC1CCN(c2ncccc2C(=O)NC2Cc3ccccc3C2)CC1)c1ccc(-c2cccc(F)c2)nc1` [Example 72, N-(2,3-Dihydro-1H-inden-2-yl)-2-[4-({[6-(3-fluorophenyl)pyridin-3-yl]carbonyl}amino)piperidin-1-yl]nicotinamide], the IC50 turned out to be 4970 pM.

For `COCc1cc(N2CCC(NC(=O)c3ccc(-c4cccc(F)c4)nc3)CC2)nc(-c2csc(C)n2)n1` [Example 73, 6-(3-Fluorophenyl)-N-{1-[6-(methoxymethyl)-2-(2-methyl-13-thiazol-4-yl)pyrimidin-4-yl]piperidin-4-yl}nicotinamide], the IC50 was 2890 pM.

Regarding `O=C(NC1CCN(c2ncccc2C(=O)c2ccccn2)CC1)c1ccc(-c2cccc(F)c2)nc1` [Example 74, 6-(3-Fluorophenyl)-N-{1-[3-(pyridin-2-ylcarbonyl)pyridin-2-yl]piperidin-4-yl}nicotinamide], the IC50 came out at 293 pM.

Turning to `O=C(NC1CCN(c2ncccc2C(=O)c2nccs2)CC1)c1ccc(-c2cccc(F)c2)nc1` [Example 75, 6-(3-Fluorophenyl)-N-{1-[3-(1,3-thiazol-2-ylcarbonyl)pyridin-2-yl]piperidin-4-yl}nicotinamide], the IC50 is 314 pM.

`CC(=O)c1cc(C#N)c(N2CCC(NC(=O)c3ccc(-c4cccc(F)c4)nc3)CC2)nc1C` [Example 76, N-[1-(5-Acetyl-3-cyano-6-methylpyridin-2-yl)piperidin-4-yl]-6-(3-fluorophenyl)nicotinamide]: the IC50 amounted to 1350 pM.

`N#Cc1ccccc1C(=O)c1cccnc1N1CCC(NC(=O)c2ccc(-c3cccc(F)c3)nc2)CC1` [Example 77, N-{1-[3-(2-Cyanobenzoyl)pyridin-2-yl]piperidin-4-yl}-6-(3-fluorophenyl)nicotinamide]: the IC50 came out at 425 pM.

As for `COC(=O)c1cnc(N)nc1N1CCC(NC(=O)c2ccc(-c3cccc(F)c3)nc2)CC1` [Example 78, Methyl 2-amino-4-[4-({[6-(3-fluorophenyl)pyridin-3-yl]carbonyl}amino)piperidin-1-yl]pyrimidine-5-carboxylate], the IC50 stood at 148 pM.

Turning to `O=C(NC1CCN(c2nccnc2Cc2ccccc2)CC1)c1ccc(-c2cccc(F)c2)nc1` [Example 79, N-[1-(3-Benzylpyrazin-2-yl)piperidin-4-yl]-6-(3-fluorophenyl)nicotinamide], the IC50 stood at 2280 pM.

On to `CNC(=O)c1ccc(N2CCC(NC(=O)c3ccc(-c4cccc(F)c4)nc3)CC2)nn1` [Example 80, 6-[4-({[6-(3-Fluorophenyl)pyridin-3-yl]carbonyl}amino)piperidin-1-yl]-N-methylpyridazine-3-carboxamide], for which the IC50 was found to be 408 pM.

Regarding `CCN1CCCC1CNC(=O)c1ccc(N2CCC(NC(=O)c3ccc(-c4cccc(F)c4)nc3)CC2)nn1` (stereo not drawn) [Example 81, N-[(1-Ethylpyrrolidin-2-yl)methyl]-6-[4-({[6-(3-fluorophenyl)pyridin-3-yl]carbonyl}amino)piperidin-1-yl]pyridazine-3-carboxamide], the IC50 came out at 947 pM.

For the molecule `CCCN(C)C(=O)c1ccc(N2CCC(NC(=O)c3ccc(-c4cccc(F)c4)nc3)CC2)nn1` [Example 82, 6-[4-({[6-(3-Fluorophenyl)pyridin-3-yl]carbonyl}amino)piperidin-1-yl]-N-methyl-N-propylpyridazine-3-carboxamide], the IC50 came out at 1050 pM.

For the molecule `CCNC(=O)c1ccc(N2CCC(NC(=O)c3ccc(-c4cccc(F)c4)nc3)CC2)nn1` [Example 83, N-Ethyl-6-[4-({[6-(3-fluorophenyl)pyridin-3-yl]carbonyl}amino)piperidin-1-yl]pyridazine-3-carboxamide], the IC50 was determined as 370 pM.

Regarding `O=C(NC1CCN(c2ccc(C(=O)NCCN3CCOCC3)nn2)CC1)c1ccc(-c2cccc(F)c2)nc1` [Example 84, 6-[4-({[6-(3-Fluorophenyl)pyridin-3-yl]carbonyl}amino)piperidin-1-yl]-N-(2-morpholin-4-ylethyl)pyridazine-3-carboxamide], the IC50 was found to be 635 pM.

On to `O=C(NC1CCN(c2ccc(C(=O)Nc3ccon3)nn2)CC1)c1ccc(-c2cccc(F)c2)nc1` [Example 85, 6-[4-({[6-(3-Fluorophenyl)pyridin-3-yl]carbonyl}amino)piperidin-1-yl]-N-isoxazol-3-ylpyridazine-3-carboxamide], for which the IC50 is 720 pM.

With `Cc1noc(NC(=O)c2ccc(N3CCC(NC(=O)c4ccc(-c5cccc(F)c5)nc4)CC3)nn2)c1C` [Example 86, N-(3,4-Dimethylisoxazol-5-yl)-6-[4-({[6-(3-fluorophenyl)pyridin-3-yl]carbonyl}amino)piperidin-1-yl]pyridazine-3-carboxamide], the IC50 worked out at 876 pM.

In the case of `CCN1CCN(C(=O)c2ccc(N3CCC(NC(=O)c4ccc(-c5cccc(F)c5)nc4)CC3)nn2)CC1` [Example 87, N-(1-{6-[(4-Ethylpiperazin-1-yl)carbonyl]pyridazin-3-yl}piperidin-4-yl)-6-(3-fluorophenyl)nicotinamide], the IC50 was determined as 538 pM.

In the case of `Cc1nn(C)c(C)c1NC(=O)c1ccc(N2CCC(NC(=O)c3ccc(-c4cccc(F)c4)nc3)CC2)nn1` [Example 89, 6-[4-({[6-(3-Fluorophenyl)pyridin-3-yl]carbonyl}amino)piperidin-1-yl]-N-(1,3,5-trimethyl-1H-pyrazol-4-yl)pyridazine-3-carboxamide], the IC50 was 365 pM.

As for `CCC(CO)n1cnc2c(N3CCC(NC(=O)c4ccc(-c5cccc(F)c5)nc4)CC3)ncnc21` (stereo not drawn) [Example 90, 6-(3-Fluorophenyl)-N-(1-{9-[1-(hydroxymethyl)propyl]-9H-purin-6-yl}piperidin-4-yl)nicotinamide], the IC50 came out at 305 pM.

Consider `COc1ccc2oc(N3CCC(NC(=O)c4ccc(-c5cccc(F)c5)nc4)CC3)nc2c1` [Example 91, 6-(3-Fluorophenyl)-N-[1-(5-methoxy-13-benzoxazol-2-yl)piperidin-4-yl]nicotinamide], for which the half-inhibitory concentration (IC50) amounted to 603 pM.

For the molecule `O=C(NC1CCN(c2nnnn2-c2ccc3c(c2)CCC3)CC1)c1ccc(-c2cccc(F)c2)nc1` [Example 92, N-{1-[1-(2,3-Dihydro-1H-inden-5-yl)-1H-tetrazol 5-yl]piperidin-4-yl}-6-(3-fluorophenyl)nicotinamide], the IC50 amounted to 5150 pM.

For the molecule `C=CCC(C)(C)c1nc2c(N3CCC(NC(=O)c4ccc(-c5cccc(F)c5)nc4)CC3)ncnc2n1C` [Example 93, N-{1-[8-(1,1-Dimethylbut-3-en-1-yl)-9-methyl-9H-purin-6-yl]piperidin-4-yl}-6-(3-fluorophenyl)nicotinamide], the IC50 was determined as 17900 pM.
